Experimental data taken from ChEMBL document CHEMBL1201862, “PubChem BioAssay data set” (2004).
Several values for one entry are separate records, joined by “and”; a condition that tells them apart may be missing. Equal entries are not always repeated.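 Where inhibition never reached the appropriate level, the endpoint shown equals the highest concentration tested. Otherwise, values were interpolated linearly from a five-concentration, 48-hour dose response in 96-well plates. At the GI50, growth is halved.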 Activity calls are given as the source filed them. No stated cut-off is given here; in the data, active = GI50 up to about 1.1 µM and inactive = higher.

Key:
Assay in all cases: growth of human tumour cells (NCI), 48 h
[1] = test system: A498
[2] = test system: A549
[3] = test system: COLO 205
[4] = test system: DLD-1
[5] = test system: EKVX
[6] = test system: HCT-15
[7] = test system: HOP-18
[8] = test system: HOP-62
[9] = test system: K562
[10] = test system: LOX IMVI
[11] = test system: LXFL 529
[12] = test system: MOLT-4
[13] = test system: Malme-3M
[14] = test system: NCI-H226
[15] = test system: OVCAR-4
[16] = test system: OVCAR-8
[17] = test system: RXF 631
[18] = test system: SF-268
[19] = test system: SK-OV-3
[20] = test system: SN12C
[21] = test system: SNB-75
[22] = test system: SNB-78
[23] = test system: UACC-62
[24] = test system: XF498
[25] = test system: 786-0
[26] = test system: ACHN
[27] = test system: CAKI-1
[28] = test system: CCRF-CEM
[29] = test system: DMS-114
[30] = test system: DMS-273
[31] = test system: HCC 2998
[32] = test system: HCT-116
[33] = test system: HL-60
[34] = test system: HOP-92
[35] = test system: HT-29
[36] = test system: IGROV-1
[37] = test system: KM-20L2
[38] = test system: KM12
[39] = test system: M14
[40] = test system: M19-MEL
[41] = test system: NCI-H23
[42] = test system: NCI-H460
[43] = test system: NCI-H522
[44] = test system: OVCAR-3
[45] = test system: OVCAR-5
[46] = test system: RPMI-8226
[47] = test system: RXF 393
[48] = test system: SF-295
[49] = test system: SF-539
[50] = test system: SK-MEL-28
[51] = test system: SK-MEL-2
[52] = test system: SK-MEL-5
[53] = test system: SNB-19
[54] = test system: SR
[55] = test system: TK-10
[56] = test system: U-251
[57] = test system: UACC-257
[58] = test system: UO-31
[59] = test system: SW-620

Measured: GI50

C/C=C(/CCC1NCCc2c1[nH]c1ccccc21)[Si](C)(C)C (stereo not drawn)
inactive: [1] 19.2 µM and 11.3 µM | [2] 14.2 µM | [3] 1.94 µM | [4] 8.3 µM | [5] 7.85 µM | [7] 11.9 µM | [8] 13.5 µM | [9] 29.2 µM and 2.49 µM | [10] 4.42 µM | [11] 1.85 µM | [12] 37.2 µM and 2.37 µM | [13] 33.3 µM and 1.78 µM | [14] 13.8 µM | [15] 81.7 µM and 4.11 µM | [16] 8.97 µM | [17] 58.5 µM and 6.87 µM | [18] 10.9 µM | [19] 13.4 µM | [20] 5.61 µM | [21] 95.3 µM and 6.17 µM | [22] 11.6 µM | [23] 78.9 µM and 12.8 µM | [24] 74.3 µM and 1.73 µM
6.27 µM: [6]

CC(=O)NC1C(OCc2ccccc2)OC(COC(=O)CCCCCCCCCCNC(=O)CCNc2ccc([N+](=O)[O-])c3[nH]c4ccc(O)cc4c(=O)c23)C(O)C1OC(C)C(=O)N[C@H](C(=O)N[C@H](CCC(=O)O)C(N)=O)C(C)C (stereo partly drawn)
inactive: [25] 76 µM | [1] 69.8 µM | [2] > 100 µM | [26] 60.7 µM | [27] > 100 µM | [28] 33 µM | [3] 32.4 µM | [4] 33.5 µM | [29] 36.2 µM | [30] 40.3 µM | [5] 96.8 µM | [31] 23.8 µM | [32] 53.7 µM | [33] 63.4 µM | [7] > 100 µM | [8] > 100 µM | [34] 28.7 µM | [35] 56.2 µM | [36] > 100 µM | [9] 76.9 µM | [37] 25.4 µM | [38] 63.4 µM | [10] 28.8 µM | [11] 81.8 µM | [39] 48.5 µM | [40] 79.1 µM | [12] 43.2 µM | [13] 22.9 µM | [14] 36.3 µM | [41] > 100 µM | [42] > 100 µM | [43] 17.4 µM | [44] 84.9 µM | [15] 35.4 µM | [45] 54.3 µM | [16] > 100 µM | [46] 19.2 µM | [47] 69.3 µM | [17] 90.6 µM | [18] > 100 µM | [48] > 100 µM | [49] 40.1 µM | [50] > 100 µM | [51] 28.8 µM | [52] > 100 µM | [19] 84.1 µM | [20] 64 µM | [53] 46.9 µM | [21] 17.1 µM | [22] 45.7 µM | [54] 20 µM | [55] > 100 µM | [56] 44.4 µM | [57] > 100 µM | [23] 85.3 µM | [58] 55.2 µM
> 100 µM: [6]

O=C(Nc1ccccc1)O/N=C1/CCCC/C1=C\c1ccccc1
11.3 µM: [6]
inactive: [25] 16.7 µM | [1] 23.2 µM | [26] 16.4 µM | [27] 15.7 µM | [28] 10.7 µM | [3] 14.5 µM | [4] 14.6 µM | [29] 12 µM | [30] 15.9 µM | [31] 20.6 µM | [32] 13.7 µM | [7] 13.7 µM | [8] 21.9 µM | [34] 22.9 µM | [35] 28.2 µM | [36] 3.55 µM | [9] 10 µM | [37] 19.6 µM | [10] 18.9 µM | [11] 8.49 µM | [39] 17.8 µM | [40] 18.1 µM | [12] 5.53 µM | [14] 24.9 µM | [41] 26 µM | [42] 15.1 µM | [43] 16.4 µM | [44] 15.2 µM | [15] 14.8 µM | [45] 26.2 µM | [16] 18.1 µM | [46] 16.5 µM | [47] 16.3 µM | [17] 18.3 µM | [18] 15.6 µM | [48] 16.1 µM | [49] 17.7 µM | [50] 17.6 µM | [51] 15 µM | [52] 13 µM | [19] 20.3 µM | [20] 16.3 µM | [21] 13.9 µM | [22] 12.4 µM | [54] 16.1 µM | [59] 16.3 µM | [55] 17.9 µM | [56] 16.2 µM | [57] 19.5 µM | [23] 15.7 µM | [58] 13.2 µM

CC1(Cl)CC(C)(/C=C/Cl)C(Cl)CC1Cl (stereo not drawn)
14.1 µM: [6]
inactive: [25] 15.4 µM | [1] 19.2 µM | [2] 14 µM | [26] 14.7 µM | [27] 16.1 µM | [28] 19.1 µM | [4] 16.7 µM | [5] 12.1 µM | [31] 17.1 µM | [32] 10.1 µM | [8] 19.9 µM | [35] 11.6 µM | [36] 12.9 µM | [9] 9.79 µM | [37] 13.2 µM | [38] 16.6 µM | [11] 14.7 µM | [39] 17 µM | [40] 18.7 µM | [12] 14.3 µM | [13] 14.9 µM | [41] 19.8 µM | [42] 14.2 µM | [43] 16.7 µM | [44] 14.5 µM | [15] 17.7 µM | [45] 18.9 µM | [16] 16.8 µM | [47] 14.8 µM | [17] 12.8 µM | [18] 15.9 µM | [48] 15.2 µM | [49] 17.1 µM | [50] 15 µM | [51] 13.5 µM | [52] 14 µM | [19] 38.4 µM | [20] 17.3 µM | [53] 17.4 µM | [21] 18.8 µM | [22] 20.9 µM | [54] 18.2 µM | [59] 15.7 µM | [55] 26.1 µM | [56] 16.9 µM | [23] 16.1 µM | [58] 16.1 µM | [24] 14.4 µM
active: [34] 0.615 µM
